The values that follow come from US10294229B2, “Heteroaryl substituted aminopyridine compounds” (BRISTOL-MYERS SQUIBB COMPANY, priority 2015, dated 2019).

For series [1], the system named is Human whole blood stimulated with a TLR2 agonist (lipoteichoic acid), IL-6 levels. Description: IRAK4 Whole Blood Assay. The format is cell-based. Particulars: lipoteichoic acid 10 μg/mL. The method, boiled down:
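ACD-A-anticoagulated human whole blood was preincubated with compounds for 60 min at 37 °C under 5% CO2. It was then stimulated with 10 μg/mL lipoteichoic acid (final) in RPMI for 5 h. IL-6 in plasma supernatants was measured by flow cytometry bead assay.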

Series [2] can be described thus: Caco-2 Permeability Assay. Format: in vitro ADME. Particulars: human, Caco-2, test compound 3 μM. The method, boiled down:
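Bidirectional permeability measured over 2 h at 37° C, compound dosed at 3 μM in the donor compartment (apical for absorptive, basolateral for secretive) with plain buffer as receiver.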

Series [3] addresses IRAK4 (Homo sapiens (Human), UniProt Q9NWZ3). Put plainly: IRAK4 Inhibition Assay. Format: biochemical. Particulars: ATP 500 μM; IRAK4 0.6 nM. The method, boiled down: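 Enzyme 0.6 nM, ATP 500 μM, FL-peptide 1.5 μM, DMSO 1.6%; HEPES pH 7.2/MgCl2/Brij 35/DTT buffer. RT, 60 min, EDTA stop. Mobility-shift product/substrate ratio; % inhib vs no-enzyme and vehicle controls.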

Each structure is given as a SMILES string. Where a name gives a salt, the structure may show the parent alone.

IRAK4, sequence (Q9NWZ3 whole entry, species assumed): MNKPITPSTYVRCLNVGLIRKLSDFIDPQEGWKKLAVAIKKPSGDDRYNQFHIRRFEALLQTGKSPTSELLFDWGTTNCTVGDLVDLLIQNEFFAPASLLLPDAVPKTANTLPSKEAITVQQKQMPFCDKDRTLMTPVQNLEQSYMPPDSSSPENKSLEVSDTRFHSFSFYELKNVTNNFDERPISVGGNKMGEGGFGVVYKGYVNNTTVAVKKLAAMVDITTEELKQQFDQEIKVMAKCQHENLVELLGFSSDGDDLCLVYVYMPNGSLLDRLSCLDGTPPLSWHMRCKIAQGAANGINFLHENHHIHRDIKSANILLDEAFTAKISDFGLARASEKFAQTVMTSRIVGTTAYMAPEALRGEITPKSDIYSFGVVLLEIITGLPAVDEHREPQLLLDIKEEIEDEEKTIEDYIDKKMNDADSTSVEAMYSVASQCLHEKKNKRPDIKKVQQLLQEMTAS

In the case of `CCN1CCOC[C@H]1c1cc(-c2cnc(-n3ncc4cc(C#N)cnc43)cc2NC(C)C)no1` [Example 431, (S)-1-(5-(5-(4-ethylmorpholin-3-yl)isoxazol-3-yl)-4-(isopropylamino)pyridin-2-yl)-1H-pyrazolo[3,4-b]pyridine-5-carbonitrile], the EC50 (in general, the concentration that produces a half-maximal response) in series [1] (Homo sapiens) amounted to 440 nM. In addition, the Papp (commonly a coefficient for how fast a substance crosses the barrier) at 2 h, 3 µM in series [2] came out at 21.8 ×10⁻⁶ cm/s. In series [3], the IC50 – broadly, the concentration needed to halve the response being measured – turned out to be 2 nM.

In series [1] (Homo sapiens), `CC(C)Nc1cc(-n2ncc3cc(C#N)cnc32)ncc1-c1cn(CCCCF)nn1` [Example 48, 1-(5-(1-(4-fluorobutyl)-1H-1,2,3-triazol-4-yl)-4-(isopropylamino)pyridin-2-yl)-1H-pyrazolo[3,4-b]pyridine-5-carbonitrile] displayed a concentration for a half-maximal effect (EC50) of 920 nM. The molecule further gave an apparent permeability coefficient (Papp) at 2 h, 3 µM in series [2] of 30 ×10⁻⁶ cm/s. Besides, the IC50 in series [3] came out at 4 nM.

For `CC(=O)N1CC[C@H](c2cc(-c3cnc(-n4ncc5cc(C#N)cnc54)cc3NC(C)C)on2)C1` [Example 405, (S)-1-(5-(3-(1-acetylpyrrolidin-3-yl)isoxazol-5-yl)-4-(isopropylamino)pyridin-2-yl)-1H-pyrazolo[3,4-b]pyridine-5-carbonitrile], a half-maximal response in series [1] (Homo sapiens) (EC50) required 260 nM. This molecule showed a Papp at 2 h, 3 µM in series [2] of 12.5 ×10⁻⁶ cm/s. The half-maximal inhibitory concentration (IC50) in series [3] turned out to be 4 nM.

As to `CC(C)Nc1cc(-n2ncc3cc(C#N)cnc32)ncc1-c1cn(CCO)nn1` [Example 11, 1-(5-(1-(2-hydroxyethyl)-1H-1,2,3-triazol-4-yl)-4-(isopropylamino)pyridin-2-yl)-1H-pyrazolo[3,4-b]pyridine-5-carbonitrile], the EC50 in series [1] (Homo sapiens) worked out at 1950 nM. In series [2], this molecule yielded a Papp at 2 h, 3 µM of 2.8 ×10⁻⁶ cm/s. Moreover, the IC50 in series [3] was determined as 11 nM.

In turn, `CC(C)(O)CCc1cn(-c2cnc(-n3ncc4cc(C#N)cnc43)cc2NC2COCC2F)nn1` (stereo not drawn) [Example 379, 1-(4-((4-fluorotetrahydrofuran-3-yl)amino)-5-(4-(3-hydroxy-3-methylbutyl)-1H-1,2,3-triazol-1-yl)pyridin-2-yl)-1H-pyrazolo [3,4-b]pyridine-5-carbonitrile] yielded an EC50 in series [1] (Homo sapiens) of 140 nM. Besides, the apparent permeability coefficient (Papp) at 2 h, 3 µM in series [2] is less than 1.5 ×10⁻⁶ cm/s. Also, the IC50 in series [3] is 5 nM.

`CC(C)Nc1cc(-n2ncc3cc(C#N)cnc32)ncc1-n1cc(CCC(C)(C)O)cn1` [Example 390, 1-(5-(4-(3-hydroxy-3-methylbutyl)-1H-pyrazol-1-yl)-4-(isopropylamino)pyridin-2-yl)-1H-pyrazolo[3,4-b]pyridine-5-carbonitrile]: the response in series [1] (Homo sapiens) was half-maximal at 270 nM (EC50). Further, the apparent permeability (Papp) at 2 h, 3 µM in series [2] worked out at 37.1 ×10⁻⁶ cm/s. In addition, the half-maximal inhibitory concentration (IC50) in series [3] came out at 8 nM.

Take `CCCn1cc(-c2cnc(-n3cnc4cc(C#N)cnc43)cc2N[C@@H](C)CO)nn1` [Example 53, (S)-3-(4-((1-hydroxypropan-2-yl)amino)-5-(1-propyl-1H-1,2,3-triazol-4-yl)pyridin-2-yl)-3H-imidazo [4,5-b]pyridine-6-carbonitrile]: in series [1] (Homo sapiens), the EC50 came to 100 nM. In series [2], this molecule gave a Papp at 2 h, 3 µM of 26.7 ×10⁻⁶ cm/s. Also, the IC50 in series [3] came out at 2 nM.

Molecule `CC(C)Nc1cc(-n2ncc3cc(C#N)cnc32)ncc1-c1cn([C@@H]2CCN(C(=O)C(C)(C)C)C[C@H]2O)nn1` (single isomer, unassigned) [Example 206] yielded a half-maximal effective concentration (EC50) in series [1] (Homo sapiens) of 1900 nM. Moreover, the apparent permeability (Papp) at 2 h, 3 µM in series [2] is 2 ×10⁻⁶ cm/s. The IC50 in series [3] came to 3 nM.

`CCCn1cc(-c2cnc(-n3ncc4cc(C#N)cnc43)cc2N[C@@H](C)CO)nn1` [Example 52, (S)-1-(4-((1-hydroxypropan-2-yl)amino)-5-(1-propyl-1H-1,2,3-triazol-4-yl)pyridin-2-yl)-1H-pyrazolo[3,4-b]pyridine-5-carbonitrile] displayed a concentration giving a half-maximal response (EC50) in series [1] (Homo sapiens) of 430 nM. The same molecule had a Papp at 2 h, 3 µM in series [2] of 3.4 ×10⁻⁶ cm/s. Also, in series [3], the half-inhibitory concentration (IC50) came out at 3 nM.

In the case of `CC(C)Nc1cc(-n2ncc3cc(C#N)cnc32)ncc1-n1cc(C2CCOCC2)nn1` [Example 355, 1-(4-(isopropylamino)-5-(4-(tetrahydro-2H-pyran-4-yl)-1H-1,2,3-triazol-1-yl)pyridin-2-yl)-1H-pyrazolo[3,4-b]pyridine-5-carbonitrile], the midpoint of the response in series [1] (Homo sapiens), the EC50, lay at 240 nM. Besides, in series [2], the apparent permeability coefficient (Papp) at 2 h, 3 µM came out at 48.7 ×10⁻⁶ cm/s. The IC50 in series [3] was found to be 7 nM.

With `CC(C)Nc1cc(-n2ncc3cc(C#N)cnc32)ncc1-c1cn([C@H]2CCN(S(C)(=O)=O)C[C@H]2O)nn1` [Example 181, 1-(5-(1-((3R,4S)-3-hydroxy-1-(methylsulfonyl)piperidin-4-yl)-1H-1,2,3-triazol-4-yl)-4-(isopropylamino)pyridin-2-yl)-1H-pyrazolo[3,4-b]pyridine-5-carbonitrile], in series [1] (Homo sapiens), the EC50 worked out at 400 nM. Further, the Papp at 2 h, 3 µM in series [2] is less than 1.5 ×10⁻⁶ cm/s. Also, the IC50 in series [3] was determined as 7 nM.

Regarding `CCOC(=O)N[C@H]1CC[C@H](n2cc(-c3cnc(-n4ncc5cc(C#N)cnc54)cc3NC(C)C)nn2)CC1` [Example 395, ethyl ((1r,4r)-4-(4-(6-(5-cyano-1H-pyrazolo[3,4-b]pyridin-1-yl)-4-(isopropylamino)pyridin-3-yl)-1H-1,2,3-triazol-1-yl)cyclohexyl)carbamate], a half-maximal effect in series [1] (Homo sapiens) (EC50) was put at 290 nM. This molecule came in with a Papp at 2 h, 3 µM in series [2] of 9.4 ×10⁻⁶ cm/s. The half-inhibitory concentration (IC50) in series [3] was 1 nM.

In series [1] (Homo sapiens), `CC(C)Nc1cc(-n2ncc3cc(C#N)cnc32)ncc1-c1cn(C2CN(C(C)C)C2)nn1` [Example 150, 1-(4-(isopropylamino)-5-(1-(1-isopropylazetidin-3-yl)-1H-1,2,3-triazol-4-yl)pyridin-2-yl)-1H-pyrazolo[3,4-b]pyridine-5-carbonitrile] displayed an EC50 of 450 nM. Also, in series [2], the Papp at 2 h, 3 µM turned out to be 9.1 ×10⁻⁶ cm/s. In addition, the IC50 in series [3] worked out at 2 nM.

For the molecule `CC(C)Nc1cc(-n2ncc3cc(C#N)cnc32)ncc1-c1cn(C2CCNCC2)nn1` [Example 195, 1-(4-(isopropylamino)-5-(1-(piperidin-4-yl)-1H-1,2,3-triazol-4-yl)pyridin-2-yl)-1H-pyrazolo [3,4-b]pyridine-5-carbonitrile], it took 450 nM to reach a half-maximal effect in series [1] (Homo sapiens) (EC50). This molecule showed an apparent permeability coefficient (Papp) at 2 h, 3 µM in series [2] of less than 1.5 ×10⁻⁶ cm/s. Further, the half-maximal inhibitory concentration (IC50) in series [3] stood at 2 nM.

For `CC(F)Cc1cn(-c2cnc(-n3ncc4cc(C#N)cnc43)cc2NC2CC2)nn1` (stereo not drawn) [Example 354, 1-(4-(cyclopropylamino)-5-(4-(2-fluoropropyl)-1H-1,2,3-triazol-1-yl)pyridin-2-yl)-1H-pyrazolo[3,4-b]pyridine-5-carbonitrile], in series [1], the concentration giving a half-maximal response (EC50) came to 150 nM. This molecule yielded a Papp at 2 h, 3 µM in series [2] of 36 ×10⁻⁶ cm/s. Further, the IC50 in series [3] amounted to 14 nM.

For the molecule `CC(C)Nc1cc(-n2ncc3cc(C#N)cnc32)ncc1-c1cn([C@H]2CCCC[C@H]2O)nn1` [Example 216, 1-(5-(1-((1S,2R)-2-hydroxycyclohexyl)-1H-1,2,3-triazol-4-yl)-4-(isopropylamino)pyridin-2-yl)-1H-pyrazolo[3,4-b]pyridine-5-carbonitrile], the concentration giving a half-maximal response (EC50) in series [1] (Homo sapiens) stood at 1650 nM. The molecule further had a Papp at 2 h, 3 µM in series [2] of 7.3 ×10⁻⁶ cm/s. Also, the IC50 in series [3] stood at 2 nM.

For the molecule `CC(C)Nc1cc(-n2ncc3cc(C#N)cnc32)ncc1-n1cc(C2CCN(C(C)C)CC2)nn1` [Example 337, 1-(4-(isopropylamino)-5-(4-(1-isopropylpiperidin-4-yl)-1H-1,2,3-triazol-1-yl)pyridin-2-yl)-1H-pyrazolo[3,4-b]pyridine-5-carbonitrile], a half-maximal effect in series [1] (Homo sapiens) (EC50) was put at 280 nM. For the same molecule, the apparent permeability (Papp) at 2 h, 3 µM in series [2] is less than 1.5 ×10⁻⁶ cm/s. In addition, the IC50 in series [3] is 6 nM.

As for `CCCNc1cc(-n2ncc3cc(C#N)cnc32)ncc1-n1cc(CCC(C)(C)O)nn1` [Example 389, 1-(5-(4-(3-hydroxy-3-methylbutyl)-1H-1,2,3-triazol-1-yl)-4-(propylamino)pyridin-2-yl)-1H-pyrazolo[3,4-b]pyridine-5-carbonitrile], in series [1] (Homo sapiens), the concentration for a half-maximal effect (EC50) worked out at 310 nM. Also, the Papp at 2 h, 3 µM in series [2] worked out at 30.2 ×10⁻⁶ cm/s. Further, the IC50 in series [3] came to 14 nM.

`CC(C)Nc1cc(-n2ncc3cc(C#N)cnc32)ncc1-c1cn(C2CCN(S(C)(=O)=O)CC2)nn1` [Example 196, 1-(4-(isopropylamino)-5-(1-(1-(methylsulfonyl)piperidin-4-yl)-1H-1,2,3-triazol-4-yl)pyridin-2-yl)-1H-pyrazolo[3,4-b]pyridine-5-carbonitrile]: a half-maximal effect in series [1] (Homo sapiens) (EC50) was put at 1210 nM. This molecule also displayed an apparent permeability (Papp) at 2 h, 3 µM in series [2] of 4.7 ×10⁻⁶ cm/s. The IC50 in series [3] was found to be 4 nM.

Take `CC(=O)N1CCC(F)(c2cc(-c3cnc(-n4ncc5cc(C#N)cnc54)cc3NC(C)C)on2)CC1` [Example 421, 1-(5-(3-(1-acetyl-4-fluoropiperidin-4-yl)isoxazol-5-yl)-4-(isopropylamino)pyridin-2-yl)-1H-pyrazolo[3,4-b]pyridine-5-carbonitrile]: the concentration giving a half-maximal response (EC50) in series [1] (Homo sapiens) is 200 nM. In series [2], this molecule had a Papp at 2 h, 3 µM of 32.2 ×10⁻⁶ cm/s. For the same molecule, the concentration for half-maximal inhibition (IC50) in series [3] amounted to 3 nM.

`CCCn1cc(-c2cnc(-n3ncc4cc(C#N)cnc43)cc2NC2CC2)nn1` [Example 34, 1-(4-(cyclopropylamino)-5-(1-propyl-1H-1,2,3-triazol-4-yl)pyridin-2-yl)-1H-pyrazolo[3,4-b]pyridine-5-carbonitrile] registered a 50% effective concentration (EC50) in series [1] (Homo sapiens) of 660 nM. The same molecule showed a Papp at 2 h, 3 µM in series [2] of 48.1 ×10⁻⁶ cm/s. Further, the IC50 in series [3] is 4 nM.

Take `CC(C)CCn1cc(-c2cnc(-n3ncc4cc(C#N)cnc43)cc2NC(C)C)nn1` [Example 10, 1-(5-(1-isopentyl-1H-1,2,3-triazol-4-yl)-4-(isopropylamino)pyridin-2-yl)-1H-pyrazolo[3,4-b]pyridine-5-carbonitrile, TFA]: the EC50 in series [1] (Homo sapiens) was 400 nM. This molecule also displayed an apparent permeability (Papp) at 2 h, 3 µM in series [2] of 5.5 ×10⁻⁶ cm/s. Further, in series [3], the IC50 worked out at 3 nM.
